Data taken from patent US20100160454A1, “ANTIMICROBIAL AGENTS, COMPOSITIONS AND PRODUCTS CONTAINING THE SAME, AND METHODS OF USING THE COMPOSITIONS AND PRODUCTS” (Eastman Chemical Company, priority 2008, published 2010).

Key:
Assay in all cases: Microbiological challenge testing in BPW broth, graded subculture counts
Format in all cases: cell-based
[1] = tested on: Staphylococcus aureus ATCC 25923; conditions: S. aureus
Summary of the method: (§1)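 TSB + 1% dextrose cultures, 35 ± 2 °C, ≥96 h. Inoculum calibrated by NTU vs plate counts; challenge at 10^5–10^6 CFU/mL final in BPW/1% dextrose with test material. Triplicates (butoxyethanol in duplicate). Spread plates on PCA, ≥48 h, CFU/mL = count × dilution.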

[2] = tested on: Aeromonas sp. Wild type
Summary of the method: as §1

[3] = tested on: Proteus vulgaris Wild type
Summary of the method: as §1

[4] = tested on: Burkholderia cepacia Wild type; conditions: B. cepacia
Summary of the method: as §1

[5] = tested on: Escherichia coli ATCC 25922; conditions: E. Coli
Summary of the method: as §1

[6] = tested on: Staphylococcus epidermidis ATCC 12228
Summary of the method: as §1

CCCCOCCO [EB, 2-butoxyethanol]
Grade ([1]; 2.5% (wt/vol), 3 day): 4 (1000 to 10,000 colonies countable (thus 10,000 CFU/mL to 100,000 CFU/mL))
Grade ([1]; 2.5% (wt/vol), 14 day): 4 (1000 to 10,000 colonies countable (thus 10,000 CFU/mL to 100,000 CFU/mL))
Grade ([1]; 2.5% (wt/vol), 30 day): 4 (1000 to 10,000 colonies countable (thus 10,000 CFU/mL to 100,000 CFU/mL))
Grade ([1]; 5.0% (wt/vol), 3 day): 2 (52 to 100 colonies counted (thus 520 to 1000 CFU/mL))
Grade ([1]; 5.0% (wt/vol), 14 day): 0
Grade ([1]; 5.0% (wt/vol), 30 day): 0
Aeromonas sp growth grade, 3 day ([2]; 2.5% weight/volume): 4 (1000 to 10,000 colonies countable (thus 10,000 CFU/mL to 100,000 CFU/mL))
Aeromonas sp growth grade, 14 day ([2]; 2.5% weight/volume): 4 (1000 to 10,000 colonies countable (thus 10,000 CFU/mL to 100,000 CFU/mL))
Aeromonas sp growth grade, 30 day ([2]; 2.5% weight/volume): 4 (1000 to 10,000 colonies countable (thus 10,000 CFU/mL to 100,000 CFU/mL))
Aeromonas sp growth grade, 3 day ([2]; 5.0% weight/volume): 1 (0 to 51 colonies counted (thus 10 to 510 CFU/mL based on 0.1-mL sample))
Aeromonas sp growth grade, 14 day ([2]; 5.0% weight/volume): 0
Aeromonas sp growth grade, 30 day ([2]; 5.0% weight/volume): 0
P. vulgaris growth grade, 3 day ([3]; 2.5% weight/volume): 4 (1000 to 10,000 colonies countable (thus 10,000 CFU/mL to 100,000 CFU/mL))
P. vulgaris growth grade, 13 day ([3]; 2.5% weight/volume): 4 (1000 to 10,000 colonies countable (thus 10,000 CFU/mL to 100,000 CFU/mL))
P. vulgaris growth grade, 30 day ([3]; 2.5% weight/volume): 4 (1000 to 10,000 colonies countable (thus 10,000 CFU/mL to 100,000 CFU/mL))
P. vulgaris growth grade, 3 day ([3]; 5.0% weight/volume): 0
P. vulgaris growth grade, 13 day ([3]; 5.0% weight/volume): 0
P. vulgaris growth grade, 30 day ([3]; 5.0% weight/volume): 0
Grade ([4]; 2.5% (wt/vol), 3 day): 4 (1000 to 10,000 colonies countable (thus 10,000 CFU/mL to 100,000 CFU/mL))
Grade ([4]; 2.5% (wt/vol), 14 day): 4 (1000 to 10,000 colonies countable (thus 10,000 CFU/mL to 100,000 CFU/mL))
Grade ([4]; 2.5% (wt/vol), 30 day): 4 (1000 to 10,000 colonies countable (thus 10,000 CFU/mL to 100,000 CFU/mL))
Grade ([4]; 5.0% (wt/vol), 3 day): 0
Grade ([4]; 5.0% (wt/vol), 14 day): 0
Grade ([4]; 5.0% (wt/vol), 30 day): 0
Grade ([5]; 2.5% (wt/vol), 3 day): 4 (1000 to 10,000 colonies countable (thus 10,000 CFU/mL to 100,000 CFU/mL))
Grade ([5]; 2.5% (wt/vol), 14 day): 4 (1000 to 10,000 colonies countable (thus 10,000 CFU/mL to 100,000 CFU/mL))
Grade ([5]; 2.5% (wt/vol), 30 day): 4 (1000 to 10,000 colonies countable (thus 10,000 CFU/mL to 100,000 CFU/mL))
Grade ([5]; 5.0% (wt/vol), 3 day): 1 (0 to 51 colonies counted (thus 10 to 510 CFU/mL based on 0.1-mL sample))
Grade ([5]; 5.0% (wt/vol), 14 day): 0
Grade ([5]; 5.0% (wt/vol), 30 day): 0
S. epidermidis growth grade, 3 day ([6]; 2.5% weight/volume): 4 (1000 to 10,000 colonies countable (thus 10,000 CFU/mL to 100,000 CFU/mL))
S. epidermidis growth grade, 13 day ([6]; 2.5% weight/volume): 4 (1000 to 10,000 colonies countable (thus 10,000 CFU/mL to 100,000 CFU/mL))
S. epidermidis growth grade, 30 day ([6]; 2.5% weight/volume): 4 (1000 to 10,000 colonies countable (thus 10,000 CFU/mL to 100,000 CFU/mL))
S. epidermidis growth grade, 3 day ([6]; 5.0% weight/volume): 0
S. epidermidis growth grade, 13 day ([6]; 5.0% weight/volume): 0
S. epidermidis growth grade, 30 day ([6]; 5.0% weight/volume): 0
